Laboratory results as given in paper PMC8137473, “Preclinical trial of a MAP4K4 inhibitor to reduce infarct size in the pig: does cardioprotection in human stem cell-derived myocytes predict success in large mammals?” (Basic Research in Cardiology, 2021).

Tested on: swine
Assay: pilot physiological study in healthy, chronically instrumented swine
Assay type: in vivo
Conditions: for LV dP/dtmin: in mmHg/s (unit assumed)
Description: Pilot physiological studies were performed in 2 female swine (45 and 85 kg), to confirm the lack of adverse effects from DMX-10001 in healthy myocardium. Animals were chronically instrumented as detailed below. Following a recovery week, animals received the pro-drug DMX-10001, while hemodynamics were recorded. Based on prior pharmacokinetic studies and modeling (Fig. 1b), two different dosing regimens were investigated, a three-step infusion (41 mg/kg/h, 0.5 h + 15.3 mg/kg/h, 2.5 h + 9.8 mg/kg/h, 5 h) versus a logistically simpler two-step approach (60 mg/kg/h, 0.5 h + 17 mg/kg/h, 23.5 h). During infusion of the pro-drug, blood was sampled to measure production of the active form, DMX-5804, by liquid chromatography–mass spectometry (Pharmidex, London, UK) as described.
A chronically instrumented animal received DMX-10001 for 8 h as shown, with a rapid initial infusion then stepwise decreasing concentrations over time. […] HR, heart rate; MAP, mean arterial pressure; CO, cardiac output; SV, stroke volume; SVR, systemic vascular resistance; dP/dtmax, maximal rate of rise in LV pressure; dP/dtmin, maximal rate of fall in LV pressure.
A chronically instrumented animal received DMX-10001 for 24 h as shown, starting with rapid infusion for half an hour then a lower concentration. […] HR, heart rate; MAP, mean arterial pressure; CO, cardiac output; SV, stroke volume; SVR, systemic vascular resistance; dP/dtmax, maximal rate of rise in LV pressure; dP/dtmin, maximal rate of fall in LV pressure.

[1] = animal 1, three-step infusion, 2 min
[2] = animal 1, three-step infusion, 10 min
[3] = animal 1, three-step infusion, 40 min
[4] = animal 1, three-step infusion, 1h
[5] = animal 1, three-step infusion, 2h
[6] = animal 1, three-step infusion, 3h
[7] = animal 1, three-step infusion, 4h
[8] = animal 1, three-step infusion, 6h
[9] = animal 1, three-step infusion, 8h
[10] = animal 1, three-step infusion, 8h 2 min
[11] = animal 1, three-step infusion, 8h 10 min
[12] = animal 1, three-step infusion, 8h 30 min
[13] = animal 1, three-step infusion, Baseline
[14] = animal 2, two-step infusion, 2 min
[15] = animal 2, two-step infusion, 10min
[16] = animal 2, two-step infusion, 30 min
[17] = animal 2, two-step infusion, 40 min
[18] = animal 2, two-step infusion, 2h
[19] = animal 2, two-step infusion, 24h
[20] = animal 2, two-step infusion, 24h 2 min
[21] = animal 2, two-step infusion, 24h 10 min
[22] = animal 2, two-step infusion, 24h 30 min
[23] = animal 2, two-step infusion, 25h
[24] = animal 2, two-step infusion, Baseline

COCCOc1ccc(-c2cn(-c3ccccc3)c3ncn(COP(=O)(O)O)c(=O)c23)cc1 [DMX-10001]
CO [1]: 11.2 L/min | HR [1]: 116 bpm | LV dP/dtmax [1]: 4070 mmHg/s | MAP [1]: 96 mmHg | SV [1]: 97 mL | SVR [1]: 8.6 mmHg/L/min | LV dP/dtmin [1]: -2280 | CO [2]: 11.1 L/min | HR [2]: 112 bpm | LV dP/dtmax [2]: 3290 mmHg/s | MAP [2]: 88 mmHg | SV [2]: 99 mL | SVR [2]: 7.9 mmHg/L/min | LV dP/dtmin [2]: -2280 | CO [3]: 10.1 L/min | HR [3]: 105 bpm | LV dP/dtmax [3]: 4060 mmHg/s | MAP [3]: 99 mmHg | SV [3]: 96 mL | SVR [3]: 9.8 mmHg/L/min | LV dP/dtmin [3]: -2530 | CO [4]: 10.7 L/min | HR [4]: 115 bpm | LV dP/dtmax [4]: 4040 mmHg/s | MAP [4]: 103 mmHg | SV [4]: 93 mL | SVR [4]: 9.7 mmHg/L/min | LV dP/dtmin [4]: -2690 | CO [5]: 11.4 L/min | HR [5]: 106 bpm | LV dP/dtmax [5]: 4840 mmHg/s | MAP [5]: 107 mmHg | SV [5]: 108 mL | SVR [5]: 9.4 mmHg/L/min | LV dP/dtmin [5]: -3270 | CO [6]: 13.0 L/min | HR [6]: 120 bpm | LV dP/dtmax [6]: 6030 mmHg/s | MAP [6]: 117 mmHg | SV [6]: 108 mL | SVR [6]: 9.0 mmHg/L/min | LV dP/dtmin [6]: -3330 | CO [7]: 12.0 L/min | HR [7]: 113 bpm | LV dP/dtmax [7]: 5260 mmHg/s | MAP [7]: 120 mmHg | SV [7]: 106 mL | SVR [7]: 10 mmHg/L/min | LV dP/dtmin [7]: -3020 | CO [8]: 12.9 L/min | HR [8]: 134 bpm | LV dP/dtmax [8]: 5430 mmHg/s | MAP [8]: 105 mmHg | SV [8]: 96 mL | SVR [8]: 8.2 mmHg/L/min | LV dP/dtmin [8]: -2830 | CO [9]: 11.8 L/min | HR [9]: 111 bpm | LV dP/dtmax [9]: 5020 mmHg/s | MAP [9]: 95 mmHg | SV [9]: 106 mL | SVR [9]: 8.0 mmHg/L/min | CO [10]: 11.1 L/min | HR [10]: 105 bpm | LV dP/dtmax [10]: 4550 mmHg/s | MAP [10]: 92 mmHg | SV [10]: 106 mL | SVR [10]: 8.3 mmHg/L/min | LV dP/dtmin [10]: -2820 | CO [11]: 11.4 L/min | HR [11]: 105 bpm | LV dP/dtmax [11]: 4730 mmHg/s | MAP [11]: 102 mmHg | SV [11]: 109 mL | SVR [11]: 8.9 mmHg/L/min | LV dP/dtmin [11]: -3300 | CO [12]: 14.3 L/min | HR [12]: 127 bpm | LV dP/dtmax [12]: 5740 mmHg/s | MAP [12]: 101 mmHg | SV [12]: 113 mL | SVR [12]: 7.1 mmHg/L/min | LV dP/dtmin [12]: -3190 | LV dP/dtmin [9]: -2920 | CO [13]: 11.1 L/min | HR [13]: 117 bpm | LV dP/dtmax [13]: 3470 mmHg/s | MAP [13]: 94 mmHg | SV [13]: 95 mL | SVR [13]: 8.5 mmHg/L/min | LV dP/dtmin [13]: -2500 | CO [14]: 9.7 L/min | HR [14]: 116 bpm | LV dP/dtmax [14]: 5860 mmHg/s | MAP [14]: 80 mmHg | SV [14]: 84 mL | SVR [14]: 8.2 mmHg/L/min | LV dP/dtmin [14]: -4170 | CO [15]: 6.9 L/min | HR [15]: 90 bpm | LV dP/dtmax [15]: 3400 mmHg/s | MAP [15]: 83 mmHg | SV [15]: 76 mL | SVR [15]: 12.1 mmHg/L/min | LV dP/dtmin [15]: -3670 | CO [16]: 6.7 L/min | HR [16]: 92 bpm | LV dP/dtmax [16]: 3420 mmHg/s | MAP [16]: 84 mmHg | SV [16]: 72 mL | SVR [16]: 12.7 mmHg/L/min | LV dP/dtmin [16]: -3430 | CO [17]: 6.1 L/min | HR [17]: 83 bpm | LV dP/dtmax [17]: 3680 mmHg/s | MAP [17]: 90 mmHg | SV [17]: 73 mL | SVR [17]: 14.8 mmHg/L/min | LV dP/dtmin [17]: -3640 | CO [18]: 7.2 L/min | HR [18]: 91 bpm | LV dP/dtmax [18]: 4250 mmHg/s | MAP [18]: 94 mmHg | SV [18]: 79 mL | SVR [18]: 13.1 mmHg/L/min | LV dP/dtmin [18]: -4120 | CO [19]: 8.7 L/min | HR [19]: 107 bpm | LV dP/dtmax [19]: 4260 mmHg/s | MAP [19]: 89 mmHg | SV [19]: 82 mL | SVR [19]: 10.2 mmHg/L/min | CO [20]: 9.1 L/min | HR [20]: 111 bpm | LV dP/dtmax [20]: 5090 mmHg/s | MAP [20]: 72 mmHg | SV [20]: 82 mL | SVR [20]: 7.9 mmHg/L/min | LV dP/dtmin [20]: -3740 | CO [21]: 7.0 L/min | HR [21]: 87 bpm | LV dP/dtmax [21]: 3950 mmHg/s | MAP [21]: 97 mmHg | SV [21]: 80 mL | SVR [21]: 13.9 mmHg/L/min | LV dP/dtmin [21]: -4120 | CO [22]: 7.7 L/min | HR [22]: 92 bpm | LV dP/dtmax [22]: 4810 mmHg/s | MAP [22]: 144 mmHg | SV [22]: 83 mL | SVR [22]: 18.9 mmHg/L/min | LV dP/dtmin [22]: -4140 | LV dP/dtmin [19]: -3380 | CO [23]: 9.1 L/min | HR [23]: 115 bpm | LV dP/dtmax [23]: 5360 mmHg/s | MAP [23]: 153 mmHg | SV [23]: 79 mL | SVR [23]: 16.8 mmHg/L/min | LV dP/dtmin [23]: -4460 | CO [24]: 7.8 L/min | HR [24]: 101 bpm | LV dP/dtmax [24]: 3800 mmHg/s | MAP [24]: 77 mmHg | SV [24]: 77 mL | SVR [24]: 10.0 mmHg/L/min | LV dP/dtmin [24]: -3040 | adverse effect on hemodynamics or LV function (pilot studies of two healthy animals): No adverse effect
